In brackets after ≈: the same amount, converted by molar mass.
What was measured:
Assay in all cases: Antifungal activity, MIC by disc (diffusion) method
T. mentagrophytes = format: cell-based; conditions: Trichophyton mentagrophytes, YMG agar, 24 hr at 28° C., read-out: MIC (minimum inhibitory concentration) T. mentagrophytes
Experimental: (§1) Measurement Method of Antifungal Activity in Various Compounds
(§2) The minimum inhibitory concentration (MIC) was measured by a disc method (diffusion method). The disc method is one kind of the diffusion method, and is a method in which filter paper (disc) impregnated with an antifungal substance at a given concentration is placed on an agar medium (test plate) coated with a test bacterium and cultivated. The disc absorbs water in the medium, diffuses the antifungal substance and forms a given concentration gradient. As a result, the test bacterium forms a growth inhibition zone (circle) in the periphery of the disc, and the level of sensitivity to the antifungal substance is determined from the diameter of the inhibition circle.
(§3) Using the aforementioned method, MIC of various compounds was measured.
(§4) i: In a 100 mL flask, 20 mL of YMG or Mueller Hinton medium is produced.
(§5) ii: A loopful of the test bacterium is dissolved in the medium.
(§6) iii: The medium is cultured at 200 rpm for 24 hr in a rotary shaker set to 28° C.
(§7) i: In a 300 mL flask, 100 mL of YMG or Mueller Hinton agar medium (low melting point agar) is produced.
(§8) ii: After cooling to 37° C.-40° C., preculture medium (1 mL) is added and the mixture is agitated.
(§9) iii: The mixture is dispensed to a square petri dish (size: 100*150*17 mm) by 20 mL each.
(§10) iv: The dish is stood at room temperature until the agar is solidified.
(§11) i: The compound is diluted in ½ dilution series in 10 stages (timely changed according to compound), 50 μL of solution/pulp at each dilution stage is produced, the organic solvent is dried at room temperature and placed on a test plate.
(§12) ii: After culturing T. rubrum for 48 hr and other test bacteria for 24 hr at 28° C. in an incubator, the size of the inhibition circle was measured.
(§13) The medium composition for culture which was used for the aforementioned preculture is shown below.
(§14) [Medium Compositions for Preculture and Test Plate]
(§15) <<YMG Medium>>: For Fungus
(§16) Agar, powder 0.8% * added only when producing test plate

A. fumigatus = format: cell-based; conditions: Aspergillus fumigatus, YMG agar, 24 hr at 28° C., read-out: MIC (minimum inhibitory concentration) A. fumigatus
Experimental: as §1, §2, §3, §4, §5, §6, §7, §8, §9, §10, §11, §12, §13, §14, §15, §16

T. rubrum = format: cell-based; conditions: Trichophyton rubrum, YMG agar, 48 hr at 28° C., read-out: MIC (minimum inhibitory concentration) T. rubrum
Experimental: as §1, §2, §3, §4, §5, §6, §7, §8, §9, §10, §11, §12, §13, §14, §15, §16

Saccharomyces = format: cell-based; conditions: YMG agar, 24 hr at 28° C., read-out: MIC (minimum inhibitory concentration) Saccharomyces
Experimental: as §1, §2, §3, §4, §5, §6, §7, §8, §9, §10, §11, §12, §13, §14, §15, §16

C. parapsilosis = format: cell-based, Candida parapsilosis; conditions: Lodderomyces parapsilosis, YMG agar, 24 hr at 28° C., read-out: MIC (minimum inhibitory concentration) C. parapsilosis
Experimental: as §1, §2, §3, §4, §5, §6, §7, §8, §9, §10, §11, §12, §13, §14, §15, §16

| SMILES | MIC (T. mentagrophytes) [µg/mL] | MIC (A. fumigatus) [µg/mL] | MIC (T. rubrum) [µg/mL] | MIC (Saccharomyces) [µg/mL] | MIC (C. parapsilosis) [µg/mL] |
| --- | --- | --- | --- | --- | --- |
| COC(=O)c1ccc2c(c1)C1ON1S(=O)(=O)O2 (stereo not drawn) [II-1f] | 1 (≈ 3.89 µM) | 4 (≈ 15.6 µM) | 1 (≈ 3.89 µM) | 4 (≈ 15.6 µM) | 4 (≈ 15.6 µM) |
| CC1=NS(=O)(=O)N=C1 [I-4a] | 2 (≈ 15.1 µM) | 8 (≈ 60.5 µM) | 2 (≈ 15.1 µM) | 8 (≈ 60.5 µM) | 8 (≈ 60.5 µM) |
| O=S1(=O)Oc2ccc(Br)cc2C2ON21 (stereo not drawn) [II-1c] | 1 (≈ 3.6 µM) | 4 (≈ 14.4 µM) | 1 (≈ 3.6 µM) | 4 (≈ 14.4 µM) | 4 (≈ 14.4 µM) |
| O=[N+]([O-])c1cc(Cl)cc2c1OS(=O)(=O)N1OC21 (stereo not drawn) [II-1i] | 1 (≈ 3.59 µM) | 4 (≈ 14.4 µM) | 1 (≈ 3.59 µM) | 4 (≈ 14.4 µM) | 4 (≈ 14.4 µM) |
| CC1=C(C)C2(c3ccccc3)ON2S(=O)(=O)N1 (stereo not drawn) [II-2d] | 2 (≈ 7.93 µM) | 8 (≈ 31.7 µM) | 2 (≈ 7.93 µM) | 8 (≈ 31.7 µM) | 8 (≈ 31.7 µM) |
| O=S1(=O)Oc2ccc(F)cc2C2ON21 (stereo not drawn) [II-1a] | 1 (≈ 4.6 µM) | 4 (≈ 18.4 µM) | 1 (≈ 4.6 µM) | 4 (≈ 18.4 µM) | 4 (≈ 18.4 µM) |
| CC1=CC(c2ccccc2)=NS(=O)(=O)N1 [I-2c] | 2 (≈ 9 µM) | 8 (≈ 36 µM) | 2 (≈ 9 µM) | 8 (≈ 36 µM) | 8 (≈ 36 µM) |
| CC1=NS(=O)(=O)Oc2ccccc21 [I-1j] | 2 (≈ 10.1 µM) | 8 (≈ 40.6 µM) | 2 (≈ 10.1 µM) | 8 (≈ 40.6 µM) | 8 (≈ 40.6 µM) |
| O=S1(=O)N2OC2c2cccn21 (stereo not drawn) [II-5b] | 4 (≈ 23.2 µM) | 16 (≈ 92.9 µM) | 4 (≈ 23.2 µM) | 16 (≈ 92.9 µM) | 16 (≈ 92.9 µM) |
| CC12ON1S(=O)(=O)Nc1ccccc12 (stereo not drawn) [II-1k] | 2 (≈ 9.42 µM) | 8 (≈ 37.7 µM) | 2 (≈ 9.42 µM) | 8 (≈ 37.7 µM) | 8 (≈ 37.7 µM) |
| CCC1=NS(=O)(=O)OC1CC (stereo not drawn) [I-3b] | 2 (≈ 11.3 µM) | 4 (≈ 22.6 µM) | 2 (≈ 11.3 µM) | 4 (≈ 22.6 µM) | 4 (≈ 22.6 µM) |
| CCCCCCCCN1CC(c2ccccc2)=NS1(=O)=O [I-3e] | 2 (≈ 6.48 µM) | 8 (≈ 25.9 µM) | 2 (≈ 6.48 µM) | 8 (≈ 25.9 µM) | 8 (≈ 25.9 µM) |
| O=S1(=O)N=C(c2ccc(Cl)cc2)CO1 [I-3d] | 2 (≈ 8.63 µM) | 8 (≈ 34.5 µM) | 2 (≈ 8.63 µM) | 8 (≈ 34.5 µM) | 8 (≈ 34.5 µM) |
| O=S1(=O)N=C(CCc2ccc(F)cc2)C2ON21 (stereo not drawn) [II-4c] | 2 (≈ 7.8 µM) | 8 (≈ 31.2 µM) | 2 (≈ 7.8 µM) | 8 (≈ 31.2 µM) | 8 (≈ 31.2 µM) |
| O=[N+]([O-])c1ccc2c(c1)C1ON1S(=O)(=O)O2 (stereo not drawn) [II-1e] | 1 (≈ 4.1 µM) | 4 (≈ 16.4 µM) | 1 (≈ 4.1 µM) | 4 (≈ 16.4 µM) | 4 (≈ 16.4 µM) |
| CC1=NS(=O)(=O)N=C1C [I-4b] | 4 (≈ 27.4 µM) | 16 (≈ 109 µM) | 4 (≈ 27.4 µM) | 16 (≈ 109 µM) | 16 (≈ 109 µM) |
| N#Cc1ccc2c(c1)C1ON1S(=O)(=O)O2 (stereo not drawn) [II-1g] | 1 (≈ 4.46 µM) | 4 (≈ 17.8 µM) | 1 (≈ 4.46 µM) | 4 (≈ 17.8 µM) | 4 (≈ 17.8 µM) |
| COc1ccc2c(c1)C=NS(=O)(=O)O2 [I-1d] | 2 (≈ 9.38 µM) | 8 (≈ 37.5 µM) | 2 (≈ 9.38 µM) | 8 (≈ 37.5 µM) | 8 (≈ 37.5 µM) |
